Test results taken from patent US20120029187A1, “HALOALKYLSULFONANILIDE DERIVATIVE” (Nissan Chemical Industries, Ltd., priority 2009, published 2012).

Experiments:
Type in all cases: in vivo
barnyardgrass [1] = experiment: Test Example 2: herbicidal effects during the vegetation period under submerged conditions; conditions: treatment during the vegetation period under submerged conditions; dose 2.52 g/a
Procedure, shortened: (§1)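 Barnyardgrass, bulrush and ducksalad were co-sown in alluvial soil flooded to 4 cm and grown in a greenhouse at 25 to 30° C. At the 1- or 2-leaf stage, water-diluted emulsifiable concentrates went onto the water surface at set doses (g/a). Herbicidal effect was scored three weeks later on a graded scale.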

ducksalad [2] = experiment: as above; conditions: treatment during the vegetation period under submerged conditions; dose 2.52 g/a
Procedure, shortened: as §1

bulrush [3] = experiment: as above; conditions: treatment during the vegetation period under submerged conditions; dose 2.52 g/a
Procedure, shortened: as §1

common ragweed [4] = experiment: Test Example 3: herbicidal effects in soil treatment; conditions: dose 3.2 g/a
Procedure, shortened: (§2)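 Seeds were sown in sterilized diluvial soil and covered with about 1.5 cm of soil. Compounds, formulated as emulsifiable concentrates and diluted with water, were sprayed evenly over the soil surface at set doses in g/a. Herbicidal effect was scored on a rating scale three weeks later.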

velvetleaf [5] = experiment: as above; conditions: dose 3.2 g/a
Procedure, shortened: as §2

common lambsquater [6] = experiment: as above; conditions: dose 3.2 g/a
Procedure, shortened: as §2

giant foxtail [7] = experiment: as above; conditions: dose 3.2 g/a
Procedure, shortened: as §2

large crabgrass [8] = experiment: as above; conditions: dose 3.2 g/a
Procedure, shortened: as §2

barnyardgrass [9] = experiment: as above; conditions: dose 3.2 g/a
Procedure, shortened: as §2

wild oat [10] = experiment: as above; conditions: dose 3.2 g/a
Procedure, shortened: as §2

common chickweed [11] = experiment: as above; conditions: dose 3.2 g/a
Procedure, shortened: as §2

redroot pigweed [12] = experiment: as above; conditions: dose 3.2 g/a
Procedure, shortened: as §2

water foxtail [13] = experiment: as above; conditions: dose 3.2 g/a
Procedure, shortened: as §2

Italian ryegrass [14] = experiment: as above; conditions: dose 3.2 g/a
Procedure, shortened: as §2

common ragweed [15] = experiment: Test Example 4: herbicidal effect in foliage treatment; conditions: dose 3.2 g/a
Procedure, shortened: (§3)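 Doses are given in grams per are of applied compound, sprayed as water-diluted emulsifiable concentrate onto foliage of 14-day-old plants grown at 25 to 30° C. Herbicidal activity was assessed visually on a rating scale after three weeks.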

velvetleaf [16] = experiment: as above; conditions: dose 3.2 g/a
Procedure, shortened: as §3

beadstraw = experiment: as above; conditions: dose 3.2 g/a
Procedure, shortened: as §3

common lambsquater [17] = experiment: as above; conditions: dose 3.2 g/a
Procedure, shortened: as §3

giant foxtail [18] = experiment: as above; conditions: dose 3.2 g/a
Procedure, shortened: as §3

large crabgrass [19] = experiment: as above; conditions: dose 3.2 g/a
Procedure, shortened: as §3

barnyardgrass [20] = experiment: as above; conditions: dose 3.2 g/a
Procedure, shortened: as §3

wild oat [21] = experiment: as above; conditions: dose 3.2 g/a
Procedure, shortened: as §3

common chickweed [22] = experiment: as above; conditions: dose 3.2 g/a, three weeks after application
Procedure, shortened: as §3

redroot pigweed [23] = experiment: as above; conditions: dose 3.2 g/a, three weeks after application
Procedure, shortened: as §3

water foxtail [24] = experiment: as above; conditions: dose 3.2 g/a
Procedure, shortened: as §3

posumbu knotweed = experiment: as above; conditions: dose 3.2 g/a
Procedure, shortened: as §3

Italian ryegrass [25] = experiment: as above; conditions: dose 3.2 g/a
Procedure, shortened: as §3

barnyardgrass [26] = experiment: Test Example 1: herbicidal effects in preemergence treatment under submerged conditions; conditions: dose 2.52 g/a
Procedure, shortened: (§4)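 Alluvial soil flooded to 4 cm depth; barnyardgrass, bulrush and ducksalad sown and 2.5-leaf rice seedlings transplanted. Same day, water-diluted emulsifiable concentrates applied to the water surface at set doses (g/a). Kept at 25–30 °C in greenhouse; effects scored 0–5 by mortality after three weeks.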

ducksalad [27] = experiment: as above; conditions: dose 2.52 g/a
Procedure, shortened: as §4

bulrush [28] = experiment: as above; conditions: dose 2.52 g/a
Procedure, shortened: as §4

transplanted rice = experiment: Test Example 1: preemergence treatment under submerged conditions, effect on crop; conditions: dose 2.52 g/a
Procedure, shortened: as §4

[29] = three weeks after the application

CC1CN(Cc2ccccc2N(C(=O)OCCCl)S(=O)(=O)C(F)(F)F)C(=O)CO1 (stereo not shown) [Compound I-8]
A: barnyardgrass, herbicidal effect (evaluation scale 0-5) (barnyardgrass [1]): 5 (mortality of 90% or above (nearly complete death))
C: ducksalad, herbicidal effect (evaluation scale 0-5) (ducksalad [2]): 5 (mortality of 90% or above (nearly complete death))
B: bulrush, herbicidal effect (evaluation scale 0-5) (bulrush [3]): 5 (mortality of 90% or above (nearly complete death))
J: common ragweed, herbicidal effect (evaluation scale 0-5) (common ragweed [4]): 5 (mortality of 90% or above (nearly complete death))
I: velvetleaf, herbicidal effect (evaluation scale 0-5) (velvetleaf [5]): 5 (mortality of 90% or above (nearly complete death))
L: common lambsquater, herbicidal effect (evaluation scale 0-5) (common lambsquater [6]): 3 (mortality of at least 40% and less than 70%)
E: giant foxtail, herbicidal effect (evaluation scale 0-5) (giant foxtail [7]): 4 (mortality of at least 70% and less than 90%)
D: large crabgrass, herbicidal effect (evaluation scale 0-5) (large crabgrass [8]): 5 (mortality of 90% or above (nearly complete death))
A: barnyardgrass, herbicidal effect (evaluation scale 0-5) (barnyardgrass [9]): 5 (mortality of 90% or above (nearly complete death))
F: wild oat, herbicidal effect (evaluation scale 0-5) (wild oat [10]): 1 (mortality of at least 5% and less than 20%)
N: common chickweed, herbicidal effect (evaluation scale 0-5) (common chickweed [11]): 5 (mortality of 90% or above (nearly complete death))
K: redroot pigweed, herbicidal effect (evaluation scale 0-5) (redroot pigweed [12]): 5 (mortality of 90% or above (nearly complete death))
G: water foxtail, herbicidal effect (evaluation scale 0-5) (water foxtail [13]): 5 (mortality of 90% or above (nearly complete death))
H: Italian ryegrass, herbicidal effect (evaluation scale 0-5) (Italian ryegrass [14]): 5 (mortality of 90% or above (nearly complete death))
J: common ragweed, herbicidal effect (common ragweed [15]; three weeks after application): 5 (mortality of 90% or above (nearly complete death))
I: velvetleaf, herbicidal effect (velvetleaf [16]; three weeks after application): 5 (mortality of 90% or above (nearly complete death))
O: beadstraw, herbicidal effect (beadstraw; three weeks after application): 4 (mortality of at least 70% and less than 90%)
L: common lambsquater, herbicidal effect (common lambsquater [17]; three weeks after application): 2 (mortality of at least 20% and less than 40%)
E: giant foxtail, herbicidal effect (giant foxtail [18]; three weeks after application): 4 (mortality of at least 70% and less than 90%)
D: large crabgrass, herbicidal effect (large crabgrass [19]; three weeks after application): 4 (mortality of at least 70% and less than 90%)
A: barnyardgrass, herbicidal effect (barnyardgrass [20]; three weeks after application): 5 (mortality of 90% or above (nearly complete death))
F: wild oat, herbicidal effect (wild oat [21]; three weeks after application): 1 (mortality of at least 5% and less than 20%)
N: common chickweed, herbicidal effect (common chickweed [22]): 3 (mortality of at least 40% and less than 70%)
K: redroot pigweed, herbicidal effect (redroot pigweed [23]): 4 (mortality of at least 70% and less than 90%)
G: water foxtail, herbicidal effect (water foxtail [24]; three weeks after application): 5 (mortality of 90% or above (nearly complete death))
M: posumbu knotweed, herbicidal effect (posumbu knotweed; three weeks after application): 5 (mortality of 90% or above (nearly complete death))
H: Italian ryegrass, herbicidal effect (Italian ryegrass [25]; three weeks after application): 4 (mortality of at least 70% and less than 90%)
A: barnyardgrass, herbicidal effect (evaluation scale 0-5) (barnyardgrass [26]): 5 (mortality of 90% or above (nearly complete death))
C: ducksalad, herbicidal effect (evaluation scale 0-5) (ducksalad [27]): 5 (mortality of 90% or above (nearly complete death))
B: bulrush, herbicidal effect (evaluation scale 0-5) (bulrush [28]): 5 (mortality of 90% or above (nearly complete death))

O=C1CCCON1Cc1ccccc1NS(=O)(=O)C(F)(F)F [III-12]
a: transplanted rice, effect on crop (evaluation scale 0-5) (transplanted rice): 2 (mortality of at least 20% and less than 40%)
A: barnyardgrass, herbicidal effect (evaluation scale 0-5) (barnyardgrass [1]): 5 (mortality of 90% or above (nearly complete death))
C: ducksalad, herbicidal effect (evaluation scale 0-5) (ducksalad [2]): 5 (mortality of 90% or above (nearly complete death))
B: bulrush, herbicidal effect (evaluation scale 0-5) (bulrush [3]): 5 (mortality of 90% or above (nearly complete death))
herbicidal effect, J: common ragweed (common ragweed [4]): 5 (mortality of 90% or above (nearly complete death))
herbicidal effect, I: velvetleaf (velvetleaf [5]): 5 (mortality of 90% or above (nearly complete death))
herbicidal effect, L: common lambsquater (common lambsquater [6]): 0 (mortality of less than 5% (almost ineffective))
herbicidal effect, E: giant foxtail (giant foxtail [7]): 5 (mortality of 90% or above (nearly complete death))
herbicidal effect, D: large crabgrass (large crabgrass [8]): 5 (mortality of 90% or above (nearly complete death))
herbicidal effect, A: barnyardgrass (barnyardgrass [9]): 5 (mortality of 90% or above (nearly complete death))
herbicidal effect, F: wild oat (wild oat [10]): 2 (mortality of at least 20% and less than 40%)
herbicidal effect, K: redroot pigweed (redroot pigweed [12]): 0 (mortality of less than 5% (almost ineffective))
herbicidal effect, G: water foxtail (water foxtail [13]): 5 (mortality of 90% or above (nearly complete death))
herbicidal effect, H: Italian ryegrass (Italian ryegrass [14]): 3 (mortality of at least 40% and less than 70%)
J: common ragweed, herbicidal effect (common ragweed [15]; [29]): 4 (mortality of at least 70% and less than 90%)
I: velvetleaf, herbicidal effect (velvetleaf [16]; [29]): 5 (mortality of 90% or above (nearly complete death))
O: beadstraw, herbicidal effect (beadstraw; [29]): 4 (mortality of at least 70% and less than 90%)
L: common lambsquater, herbicidal effect (common lambsquater [17]; [29]): 0 (mortality of less than 5% (almost ineffective))
E: giant foxtail, herbicidal effect (giant foxtail [18]; [29]): 3 (mortality of at least 40% and less than 70%)
D: large crabgrass, herbicidal effect (large crabgrass [19]; [29]): 5 (mortality of 90% or above (nearly complete death))
A: barnyardgrass, herbicidal effect (barnyardgrass [20]; [29]): 5 (mortality of 90% or above (nearly complete death))
F: wild oat, herbicidal effect (wild oat [21]; [29]): 0 (mortality of less than 5% (almost ineffective))
G: water foxtail, herbicidal effect (water foxtail [24]; [29]): 5 (mortality of 90% or above (nearly complete death))
M: posumbu knotweed, herbicidal effect (posumbu knotweed; [29]): 0 (mortality of less than 5% (almost ineffective))
H: Italian ryegrass, herbicidal effect (Italian ryegrass [25]; [29]): 3 (mortality of at least 40% and less than 70%)
A: barnyardgrass, herbicidal effect (evaluation scale 0-5) (barnyardgrass [26]): 5 (mortality of 90% or above (nearly complete death))
C: ducksalad, herbicidal effect (evaluation scale 0-5) (ducksalad [27]): 5 (mortality of 90% or above (nearly complete death))
B: bulrush, herbicidal effect (evaluation scale 0-5) (bulrush [28]): 5 (mortality of 90% or above (nearly complete death))
